The numbers were not newly measured in patent publication US4144131A, “Immobilization of enzymes on human tissue or erythrocytes” (Wisconsin Alumni Research Foundation, priority 1974, dated 1979), which cites them from elsewhere.

The test system of the data set is soybean lipoxygenase. To be noted: read-out: Km for oxygen, compared with oxygen concentrations in tumor tissue.

With `O=O` [oxygen], the Km was 30 µM.
